Measured values from ChEMBL document CHEMBL4177712, “AMP and adenosine are both ligands for adenosine 2B receptor signaling” (Bioorg Med Chem Lett, 2018).
Activity calls are given as the source filed them. The rule behind the calls is not given here.

How the values were obtained:
[1] = target: T1, Adenosine receptor A2b (Homo sapiens) (UniProt P29275); assay: Agonist activity at human A2B receptor expressed in CHOK1 cells expressing ADORA2B-CRE-bla assessed as induction of cAMP accumulation by FRET assay; format: functional, cell-based
T1 sequence (whole entry): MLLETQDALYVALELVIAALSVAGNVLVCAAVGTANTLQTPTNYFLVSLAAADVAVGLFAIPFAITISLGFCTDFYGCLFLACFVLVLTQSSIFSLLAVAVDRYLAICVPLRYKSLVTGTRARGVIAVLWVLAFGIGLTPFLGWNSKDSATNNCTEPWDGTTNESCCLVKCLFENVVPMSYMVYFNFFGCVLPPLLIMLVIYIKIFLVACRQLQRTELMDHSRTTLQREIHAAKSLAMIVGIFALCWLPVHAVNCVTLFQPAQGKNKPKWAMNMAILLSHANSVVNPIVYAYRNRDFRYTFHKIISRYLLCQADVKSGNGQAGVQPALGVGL

[2] = target: T1, Adenosine receptor A2b (Homo sapiens); assay: Agonist activity at human A2B receptor expressed in CHO cells assessed as induction of calcium mobilization by Fluo-4 dye based fluorescence assay; format: functional, cell-based

SMILES | Activity [1] | Activity [2]
Nc1ncnc2c1ncn2[C@H]1O[C@H](COP(O)(O)=S)[C@@H](O)[C@H]1O | inactive | Dose-dependent effect
Nc1ncnc2c1ncn2[C@@H]1O[C@H](CO)[C@@H](O)[C@H]1O |  | Active
